The values below come from the supplement of paper PMC11208160.
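Note: IS621 recombinase and bridge RNA in Escherichia coli cells.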

The data set can be described thus: recombinant barcode read abundance after kanamycin selection (control-corrected) (log10(CPM+1)); higher = more efficient recombination; sequences stand for … in AGTGCAGAGAAAATCGGCCAGTTTTCTCTGCCTGCAGTCCGCATGCCGT…AGATTTATGCAGCGGACTGCCTTTCTCCCAAAGTGATAAACCGGACAGTATCATGGACCGGTTTTCCCGGTAATCCGTATTTGCAAGGTTGGTTTCACT; site = the 11-nt target. In outline:
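Pooled E. coli screen pairing targets with IS621 bridge RNA target-binding loops. Each oligo (promoter, target, barcode, J23119-driven first 104 bridge RNA bases) was Gibson-cloned into a vector with the remaining 73 bp and T7-inducible recombinase, then co-electroporated with a donor plasmid. Two replicates each were plated on chloramphenicol/ampicillin LB agar (control) or chloramphenicol/ampicillin/kanamycin with 0.1 mM IPTG. Recombination efficiency is recombinant-junction barcode counts as CPM, averaged, control-corrected, reported as log10(CPM+1).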
As for “ATGGTGACTTGGGTTCTAACCTGTTGCCT (site ATGGTGTCTAG)”, the “recombinant barcode read abundance (log10)” value came out at 0.0769.

For the sequence “ATGTCCTCTTGGGTTCTAACCTGTTGCCA (site ATGTCCTCTTG)”, the “recombinant barcode read abundance (log10)” value is 1.02.

“ATGTCCTCTTGGGTTCTAACCTGTTGCCA (site GCTCGGGCTCC)”: the “recombinant barcode read abundance (log10)” value was found to be 0.

Take “ATGTCTACTTGGGTTCTAACCTGTTGCAG (site ATGTCTACTCT)”: the “recombinant barcode read abundance (log10)” value was 0.673.

Turning to “ATGTCTACTTGGGTTCTAACCTGTTGCAG (site TGCCTATCTAA)”, the “recombinant barcode read abundance (log10)” value amounted to 0.219.

As to “ATGTGCACTTGGGTTCTAACCTGTTGCAG (site ATGTGCACTCT)”, the “recombinant barcode read abundance (log10)” value is 2.15.

For the sequence “ATGTGCACTTGGGTTCTAACCTGTTGCAG (site CTGTGCACTCG)”, the “recombinant barcode read abundance (log10)” value was determined as 0.63.

With “ATTAAATCTTGGGTTCTAACCTGTTGCCT (site ATTAAATCTAG)”, the “recombinant barcode read abundance (log10)” value worked out at 0.0334.

For “ATTAAATCTTGGGTTCTAACCTGTTGCCT (site ATTAATCCTAG)”, the “recombinant barcode read abundance (log10)” value is 0.485.

Take “ATTAACCCTTGGGTTCTAACCTGTTGCCT (site AATAACCCTAG)”: the “recombinant barcode read abundance (log10)” value came to 0.0681.

In the case of “ATTAACCCTTGGGTTCTAACCTGTTGCCT (site ACTAACCCTAG)”, the “recombinant barcode read abundance (log10)” value was 0.0136.

Regarding “ATTAACCCTTGGGTTCTAACCTGTTGCCT (site AGTAACCCTAG)”, the “recombinant barcode read abundance (log10)” value was determined as 0.085.

“ATTAACCCTTGGGTTCTAACCTGTTGCCT (site ATTAACCCTAG)”: the “recombinant barcode read abundance (log10)” value worked out at 1.21.

For the sequence “ATTAACTCTTGGGTTCTAACCTGTTGCCT (site ATTAACTCTAG)”, the “recombinant barcode read abundance (log10)” value is 0.944.

As to “ATTAACTCTTGGGTTCTAACCTGTTGCCT (site CGAGTGACTCT)”, the “recombinant barcode read abundance (log10)” value was 0.0163.

“ATTAAGACTTGGGTTCTAACCTGTTGCCT (site ATAAAGACTAG)”: the “recombinant barcode read abundance (log10)” value was found to be 0.423.

As for “ATTAAGACTTGGGTTCTAACCTGTTGCCT (site ATCAAGACTAG)”, the “recombinant barcode read abundance (log10)” value was determined as 0.484.

Turning to “ATTAAGACTTGGGTTCTAACCTGTTGCCT (site ATGAAGACTAG)”, the “recombinant barcode read abundance (log10)” value is 0.11.

On to “ATTAAGACTTGGGTTCTAACCTGTTGCCT (site ATTAAGACTAG)”, for which the “recombinant barcode read abundance (log10)” value came to 1.35.

On to “ATTCGAGCTTGGGTTCTAACCTGTTGCGC (site ATTCGAGCTGC)”, for which the “recombinant barcode read abundance (log10)” value was found to be 2.03.

For “ATTCGAGCTTGGGTTCTAACCTGTTGCGC (site ATTCGGGCTAC)”, the “recombinant barcode read abundance (log10)” value was 0.0665.

Take “ATTCGAGCTTGGGTTCTAACCTGTTGCGG (site ATTCGAGCTCC)”: the “recombinant barcode read abundance (log10)” value was found to be 1.97.

Turning to “ATTCGAGCTTGGGTTCTAACCTGTTGCGG (site GTTCGAGCTCC)”, the “recombinant barcode read abundance (log10)” value was determined as 0.0863.

For “ATTGAGACTTGGGTTCTAACCTGTTGCTT (site ATTGAGACTAA)”, the “recombinant barcode read abundance (log10)” value was found to be 1.33.

In the case of “ATTGAGACTTGGGTTCTAACCTGTTGCTT (site GAGAGTCCTTG)”, the “recombinant barcode read abundance (log10)” value was determined as 0.0837.

Turning to “ATTGGGGCTTGGGTTCTAACCTGTTGCAG (site ATTAGGGCTCG)”, the “recombinant barcode read abundance (log10)” value amounted to 0.266.

Consider “ATTGGGGCTTGGGTTCTAACCTGTTGCAG (site ATTGGGGCTCT)”, for which the “recombinant barcode read abundance (log10)” value is 2.38.

“ATTTAAGCTTGGGTTCTAACCTGTTGCCT (site ATTTAAGCTAG)”: the “recombinant barcode read abundance (log10)” value worked out at 0.498.

With “ATTTAAGCTTGGGTTCTAACCTGTTGCCT (site GAGCGGCCTCT)”, the “recombinant barcode read abundance (log10)” value came to 0.0137.

For “ATTTCTTCTTGGGTTCTAACCTGTTGCCT (site ATATCTTCTAG)”, the “recombinant barcode read abundance (log10)” value was 0.113.

As for “ATTTCTTCTTGGGTTCTAACCTGTTGCCT (site ATTTCTTCTAG)”, the “recombinant barcode read abundance (log10)” value worked out at 0.0847.

Consider “ATTTGCACTTGGGTTCTAACCTGTTGCCT (site ATTTGAACTAG)”, for which the “recombinant barcode read abundance (log10)” value was 0.14.

As to “ATTTGCACTTGGGTTCTAACCTGTTGCCT (site ATTTGCACTAG)”, the “recombinant barcode read abundance (log10)” value turned out to be 0.184.

As for “ATTTGCACTTGGGTTCTAACCTGTTGCCT (site ATTTGGACTAG)”, the “recombinant barcode read abundance (log10)” value was found to be 0.0348.

With “ATTTGCACTTGGGTTCTAACCTGTTGCCT (site ATTTGTACTAG)”, the “recombinant barcode read abundance (log10)” value was 0.0454.

For the sequence “ATTTGTACTTGGGTTCTAACCTGTTGCCT (site ATTTGAACTAG)”, the “recombinant barcode read abundance (log10)” value is 0.0288.

Consider “ATTTGTACTTGGGTTCTAACCTGTTGCCT (site ATTTGCACTAG)”, for which the “recombinant barcode read abundance (log10)” value was 0.0709.

As to “ATTTGTACTTGGGTTCTAACCTGTTGCCT (site ATTTGGACTAG)”, the “recombinant barcode read abundance (log10)” value stood at 0.

“ATTTGTACTTGGGTTCTAACCTGTTGCCT (site ATTTGTACTAG)”: the “recombinant barcode read abundance (log10)” value was found to be 0.293.

Consider “CAAACACCTTGGGTTCTAACCTGTTGCCT (site CAAACAACTAG)”, for which the “recombinant barcode read abundance (log10)” value was 0.0738.

For “CAAACACCTTGGGTTCTAACCTGTTGCCT (site CAAACACCTAG)”, the “recombinant barcode read abundance (log10)” value was determined as 1.46.

Take “CAAACACCTTGGGTTCTAACCTGTTGCCT (site CAAACAGCTAG)”: the “recombinant barcode read abundance (log10)” value was 0.682.

In the case of “CAAACACCTTGGGTTCTAACCTGTTGCCT (site CAAACATCTAG)”, the “recombinant barcode read abundance (log10)” value was 0.287.

On to “CAAACTACTTGGGTTCTAACCTGTTGCAC (site CAAACTACTGT)”, for which the “recombinant barcode read abundance (log10)” value came out at 0.556.

On to “CAAACTACTTGGGTTCTAACCTGTTGCAC (site CAAACTACTTA)”, for which the “recombinant barcode read abundance (log10)” value came out at 0.0177.

For “CAAAGGGCTTGGGTTCTAACCTGTTGCAG (site CAAAAGGCTCT)”, the “recombinant barcode read abundance (log10)” value stood at 1.17.

With “CAAAGGGCTTGGGTTCTAACCTGTTGCAG (site CAAAGGGCTCT)”, the “recombinant barcode read abundance (log10)” value is 2.29.

For “CAAAGTCCTTGGGTTCTAACCTGTTGCCT (site CAAAGTCCTAA)”, the “recombinant barcode read abundance (log10)” value was found to be 0.013.

Regarding “CAAAGTCCTTGGGTTCTAACCTGTTGCCT (site CAAAGTCCTAC)”, the “recombinant barcode read abundance (log10)” value was 0.0449.

As to “CAAAGTCCTTGGGTTCTAACCTGTTGCCT (site CAAAGTCCTAG)”, the “recombinant barcode read abundance (log10)” value amounted to 1.12.

Consider “CAAAGTCCTTGGGTTCTAACCTGTTGCCT (site CAAAGTCCTAT)”, for which the “recombinant barcode read abundance (log10)” value was found to be 0.0828.

“CAAAGTCCTTGGGTTCTAACCTGTTGCTT (site CAAAGTCCTAA)”: the “recombinant barcode read abundance (log10)” value was 0.437.

“CAAAGTCCTTGGGTTCTAACCTGTTGCTT (site CAAAGTCCTAC)”: the “recombinant barcode read abundance (log10)” value is 0.174.

For the sequence “CAAAGTCCTTGGGTTCTAACCTGTTGCTT (site CAAAGTCCTAG)”, the “recombinant barcode read abundance (log10)” value stood at 0.152.

For “CAAAGTCCTTGGGTTCTAACCTGTTGCTT (site CAAAGTCCTAT)”, the “recombinant barcode read abundance (log10)” value came to 0.429.

Regarding “CAACCGGCTTGGGTTCTAACCTGTTGCCT (site CAACCGACTAG)”, the “recombinant barcode read abundance (log10)” value is 0.0354.

As to “CAACCGGCTTGGGTTCTAACCTGTTGCCT (site CAACCGCCTAG)”, the “recombinant barcode read abundance (log10)” value is 0.255.

For “CAACCGGCTTGGGTTCTAACCTGTTGCCT (site CAACCGGCTAG)”, the “recombinant barcode read abundance (log10)” value came out at 0.986.

As for “CAACCGGCTTGGGTTCTAACCTGTTGCCT (site CAACCGTCTAG)”, the “recombinant barcode read abundance (log10)” value amounted to 0.111.

As for “CAAGGGCCTTGGGTTCTAACCTGTTGCCT (site CAAAGGCCTAG)”, the “recombinant barcode read abundance (log10)” value came to 0.423.

For the sequence “CAAGGGCCTTGGGTTCTAACCTGTTGCCT (site CAACGGCCTAG)”, the “recombinant barcode read abundance (log10)” value stood at 0.0504.

Consider “CAAGGGCCTTGGGTTCTAACCTGTTGCCT (site CAAGGGCCTAG)”, for which the “recombinant barcode read abundance (log10)” value came to 0.701.

Take “CAAGGGCCTTGGGTTCTAACCTGTTGCCT (site CAATGGCCTAG)”: the “recombinant barcode read abundance (log10)” value amounted to 0.375.

As to “CAAGTAGCTTGGGTTCTAACCTGTTGCCT (site CAAGTAGCTAG)”, the “recombinant barcode read abundance (log10)” value came to 0.591.

Regarding “CAAGTAGCTTGGGTTCTAACCTGTTGCCT (site CAAGTCGCTAG)”, the “recombinant barcode read abundance (log10)” value is 0.123.

“CAAGTAGCTTGGGTTCTAACCTGTTGCCT (site CAAGTGGCTAG)”: the “recombinant barcode read abundance (log10)” value was found to be 0.183.

For the sequence “CAAGTAGCTTGGGTTCTAACCTGTTGCCT (site CAAGTTGCTAG)”, the “recombinant barcode read abundance (log10)” value came to 0.0368.

Consider “CAATAGACTTGGGTTCTAACCTGTTGCCT (site CAATAGACTAG)”, for which the “recombinant barcode read abundance (log10)” value came out at 1.19.

On to “CAATAGACTTGGGTTCTAACCTGTTGCCT (site TGCACCTCTTA)”, for which the “recombinant barcode read abundance (log10)” value was 0.0564.

As for “CAATCACCTTGGGTTCTAACCTGTTGCTT (site CAAACACCTAA)”, the “recombinant barcode read abundance (log10)” value was 0.109.

As for “CAATCACCTTGGGTTCTAACCTGTTGCTT (site CAACCACCTAA)”, the “recombinant barcode read abundance (log10)” value worked out at 0.461.

On to “CAATCACCTTGGGTTCTAACCTGTTGCTT (site CAAGCACCTAA)”, for which the “recombinant barcode read abundance (log10)” value was 0.027.

Consider “CAATCACCTTGGGTTCTAACCTGTTGCTT (site CAATCACCTAA)”, for which the “recombinant barcode read abundance (log10)” value amounted to 0.794.

“CAATCCTCTTGGGTTCTAACCTGTTGCTT (site CAATCCTCTAA)”: the “recombinant barcode read abundance (log10)” value stood at 0.664.

Regarding “CAATCCTCTTGGGTTCTAACCTGTTGCTT (site CCATCCTCTAA)”, the “recombinant barcode read abundance (log10)” value came to 0.

Regarding “CAATCGTCTTGGGTTCTAACCTGTTGCGG (site CAATCGTCTCC)”, the “recombinant barcode read abundance (log10)” value was 1.68.

For “CAATCGTCTTGGGTTCTAACCTGTTGCGG (site CAGCCGTCTCC)”, the “recombinant barcode read abundance (log10)” value amounted to 0.166.
